Experimental findings from PMC11496704, “Synthesis and cytotoxicity studies of novel N-arylbenzo[h]quinazolin-2-amines” (Beilstein Journal of Organic Chemistry, 2024) are described below.

Common to all, as to format: cell-based
The test system of one series is HCT116. Nature of the series: Cytotoxicity primary screen (single dose). The conditions noted are these: Homo sapiens, HCT-116; single dose 25 μM, 48 h exposure, mean of triplicates; read-out: percentage of cell survival over DMSO control, HCT116. The procedure:
(§1) Next, we performed a cytotoxicity screening of the nineteen molecules 4a–s, at 25 μM, investigating seven representative cancer cell lines: hepatocellular carcinoma HuH-7, colorectal adenocarcinoma CaCo-2, breast carcinoma MDA-MB-231 and MDA-MB-468, colorectal carcinoma HCT-116, prostate carcinoma PC3 and breast carcinoma MCF7. […] For details see: ref. [2] and Supporting Information File 1, Table S1.
(§2) Cell culture. Skin normal fibroblastic cells are purchased from Lonza (Basel, Switzerland), HuH-7, Caco-2, MDA-MB-231, HCT-116, PC3, MCF7 and NCI-H727 cancer cell lines were obtained from ATCC (American Type Culture Collection). Cells are grown at 37 °C, 5% CO2 in ATCC recommended media: DMEM for HuH-7, MDA-MB-231, MDA-MB-468 and fibroblast, EMEM for MCF7 and CaCo-2, McCoy’s for HCT-116 and RPMI for PC3 and NCI-H727. All culture media are supplemented by 10% of FBS, 1% of penicillin-streptomycin and 2 mM glutamine.
(§3) Both studies have been performed following the protocols described in a previous paper, see ref. [2].
(§4) Table S1: Cytotoxicity studies (single dose at 25µM) of N-arylbenzo[h]quinazolin-2-amines 4a–s
(§5) The toxicity is expressed as the percentage of cell survival (from 100 % to 0 %) over DMSO control after 48 h exposure (mean of triplicates).
(§6) Effect of the solvent (DMSO) was studied at 0.25%.

Series [1] concerns MCF7. As to the kind of experiment: Cytotoxicity primary screen (single dose). Particulars: Homo sapiens, single dose 25 μM, 48 h exposure, mean of triplicates, read-out: percentage of cell survival over DMSO control, MCF7. The procedure:
as §1, §2, §3, §4, §5, §6

Another series deals with MDA231. Nature of the series: Cytotoxicity primary screen (single dose). Particulars: Homo sapiens, MDA-MB-231; single dose 25 μM, 48 h exposure, mean of triplicates; read-out: percentage of cell survival over DMSO control, MDA231. How it is done: as §1, §2, §3, §4, §5, §6
The test system of series [2] is PC3. As to the kind of experiment: Cytotoxicity primary screen (single dose). The conditions noted are these: Homo sapiens, PC-3; single dose 25 μM, 48 h exposure, mean of triplicates; read-out: percentage of cell survival over DMSO control, PC3. How it is done: as §1, §2, §3, §4, §5, §6
For a further series, the system named is MDA468. As to the kind of experiment: Cytotoxicity primary screen (single dose). The conditions noted are these: single dose 25 μM, 48 h exposure, mean of triplicates; read-out: percentage of cell survival over DMSO control, MDA468. The procedure:
as §1, §2, §3, §4, §5, §6

Series [3] has as its system Caco-2. Nature of the series: Cytotoxicity primary screen (single dose). Particulars: single dose 25 μM, 48 h exposure, mean of triplicates. How it is done:
as §1, §2, §3, §4, §5, §6

Another series deals with HuH7. As to the kind of experiment: Cytotoxicity primary screen (single dose). The conditions noted are these: Homo sapiens, Huh-7; single dose 25 μM, 48 h exposure, mean of triplicates; read-out: percentage of cell survival over DMSO control, HuH7. The procedure: as §1, §2, §3, §4, §5, §6
For a further series, the system named is MDA-MB-468. Nature of the series: Cytotoxicity secondary screen (IC50). Particulars: Homo sapiens, 48 h exposure, mean of triplicates, NE: no effect.
The next series relates to MDA-MB-231. As to the kind of experiment: Cytotoxicity secondary screen (IC50). The conditions noted are these: Homo sapiens, 48 h exposure, mean of triplicates, NE: no effect.
For the next series, the system named is HCT-116. Nature of the series: Cytotoxicity secondary screen (IC50). Particulars: Homo sapiens, 48 h exposure, mean of triplicates, NE: no effect. The procedure: as §1, §2, §3
For series [4], the system named is Caco-2. Nature of the series: Cytotoxicity secondary screen (IC50). The conditions noted are these: Homo sapiens, 48 h exposure, mean of triplicates, NE: no effect. How it is done:
as §1, §2, §3

The subject of series [5] is MCF7. As to the kind of experiment: Cytotoxicity secondary screen (IC50). Particulars: Homo sapiens, 48 h exposure, mean of triplicates, NE: no effect.
A further series has as its system HuH-7. As to the kind of experiment: Cytotoxicity secondary screen (IC50). The conditions noted are these: Homo sapiens, 48 h exposure, mean of triplicates, NE: no effect. The procedure:
as §2, §3

A further series relates to normal human fibroblasts. Nature of the series: Cytotoxicity secondary screen (IC50). The conditions noted are these: Fibroblast, 48 h exposure, mean of triplicates, NE: no effect, highest concentration tested 25 μM, read-out: IC50 Fibro. The procedure: as §2, §3
For series [6], the system named is PC3. Nature of the series: Cytotoxicity secondary screen (IC50). Particulars: Homo sapiens, PC-3; 48 h exposure, mean of triplicates; NE: no effect. The procedure: as §2, §3

The structures appear in SMILES notation.

For the compound `COc1ccc(Nc2ncc3ccc4ccccc4c3n2)cc1` [Compound 4g, N-(4-methoxyphenyl)benzo[h]quinazolin-2-amine], the viability at 25 µM with HCT116 was 72%; in the series on MCF7 [1], 83%; in the series on MDA231 it was 87%; in the series with PC3 [2], 82%; in the series with MDA468 it was 90%; in the series on HuH7, 79%. Further, the “percentage of cell survival over DMSO control, CaCo-2” value (from here on “percentage of cell survival”) in the series with Caco-2 [3] is on record as 81%.

With `COc1cccc(Nc2ncc3ccc4ccccc4c3n2)c1` [Compound 4f, N-(3-methoxyphenyl)benzo[h]quinazolin-2-amine], the IC50 – broadly, the concentration that inhibits the measured activity by half – in the series with MDA-MB-468 was 33 µM; with MDA-MB-231 it was greater than 25 µM; with HCT-116, 10 µM; with Caco-2 [4], 4.3 µM; in the series on MCF7 [5], greater than 25 µM; in the series on HuH-7, 23 µM. Besides, the results for the IC50 in the series with normal human fibroblasts and with PC3 [6] were greater than 25 µM and 26 µM, respectively. For the same compound, the viability at 25 µM with HCT116 was determined as 29%; in the series on MCF7 [1], 78%; in the series with MDA231, 77%; in the series on PC3 [2] it was 54%; with MDA468, 73%; in the series with HuH7 it was 59%. Besides, in the series on Caco-2 [3], the “percentage of cell survival” value is 59%.

Take `Clc1cccc(Nc2ncc3ccc4ccccc4c3n2)c1` [Compound 4l, N-(3-chlorophenyl)benzo[h]quinazolin-2-amine]: the IC50 in the series with MDA-MB-468 was 26 µM; in the series on MDA-MB-231, greater than 25 µM; in the series on HCT-116, 24 µM; in the series on Caco-2 [4], 17 µM; in the series with MCF7 [5] it was 18 µM; with HuH-7, 22 µM. Further, the IC50 was greater than 25 µM in the series on normal human fibroblasts and 26 µM in the series with PC3 [6]. The viability at 25 µM turned out to be 56% with HCT116; 68% in the series with MCF7 [1]; 67% in the series on MDA231; 59% with PC3 [2]; 78% in the series on MDA468; 71% in the series with HuH7. In addition, the “percentage of cell survival” value in the series on Caco-2 [3] amounted to 38%.

In the case of `Fc1ccccc1Nc1ncc2ccc3ccccc3c2n1` [Compound 4h, N-(2-fluorophenyl)benzo[h]quinazolin-2-amine], the IC50 in the series on MDA-MB-468 is greater than 25 µM; with MDA-MB-231, greater than 25 µM; with HCT-116 it was greater than 25 µM; in the series on Caco-2 [4], 4.6 µM; in the series on MCF7 [5] it was greater than 25 µM; with HuH-7, greater than 25 µM. Besides, the IC50 in the series with normal human fibroblasts and with PC3 [6] was greater than 25 µM throughout. The viability at 25 µM was 82% with HCT116; 83% in the series with MCF7 [1]; 83% in the series on MDA231; 74% in the series on PC3 [2]; 94% in the series with MDA468; 81% in the series with HuH7. For the same compound, in the series on Caco-2 [3], the “percentage of cell survival” value came to 48%.

Consider `Cc1cccc(Nc2ncc3ccc4ccccc4c3n2)c1` [Compound 4c, N-(m-tolyl)benzo[h]quinazolin-2-amine], for which the half-maximal inhibitory concentration (IC50) is 22 µM in the series on MDA-MB-468; greater than 25 µM in the series on MDA-MB-231; 18 µM in the series on HCT-116; 28 µM with Caco-2 [4]; 30 µM in the series with MCF7 [5]; greater than 25 µM in the series on HuH-7. The IC50 with normal human fibroblasts and in the series with PC3 [6] was greater than 25 µM in each case. Further, the viability at 25 µM with HCT116 is 52%; in the series with MCF7 [1], 50%; in the series with MDA231 it was 81%; in the series with PC3 [2] it was 60%; in the series with MDA468, 65%; in the series with HuH7 it was 68%. Besides, in the series with Caco-2 [3], the “percentage of cell survival” value amounted to 50%.

For `Fc1ccc(Nc2ncc3ccc4ccccc4c3n2)cc1F` [Compound 4n, N-(3,4-difluorophenyl)benzo[h]quinazolin-2-amine], the viability at 25 µM in the series with HCT116 stood at 82%; with MCF7 [1] it was 97%; with MDA231, 91%; in the series on PC3 [2] it was 82%; in the series with MDA468, 85%; in the series with HuH7, 79%. In the series on Caco-2 [3], the “percentage of cell survival” value is reported as 72%.

As to `COc1ccccc1Nc1ncc2ccc3ccccc3c2n1` [Compound 4e, N-(2-methoxyphenyl)benzo[h]quinazolin-2-amine], the IC50 in the series on MDA-MB-468 was 25 µM; in the series on MDA-MB-231, 25 µM; in the series with HCT-116 it was 26 µM; with Caco-2 [4] it was 20 µM; in the series with MCF7 [5], 22 µM; in the series on HuH-7, greater than 25 µM. For the same compound, the IC50 in the series with normal human fibroblasts and in the series on PC3 [6] was greater than 25 µM each time. The viability at 25 µM came out at 8% with HCT116; 82% in the series with MCF7 [1]; 40% in the series with MDA231; 21% with PC3 [2]; 46% in the series with MDA468; 55% in the series with HuH7. Further, in the series on Caco-2 [3], the “percentage of cell survival” value was found to be 59%.

In the case of `Fc1cc(Nc2ncc3ccc4ccccc4c3n2)cc(F)c1F` [Compound 4s, N-(3,4,5-trifluorophenyl)benzo[h]quinazolin-2-amine], the viability at 25 µM in the series with HCT116 is 63%; in the series on MCF7 [1], 54%; in the series on MDA231, 78%; with PC3 [2], 50%; with MDA468, 78%; in the series with HuH7 it was 77%. Besides, the “percentage of cell survival” value with Caco-2 [3] is 65%.

As to `Cc1cc(Nc2ncc3ccc4ccccc4c3n2)ccc1Br` [Compound 4r, N-(4-bromo-3-methylphenyl)benzo[h]quinazolin-2-amine], the viability at 25 µM in the series with HCT116 stood at 100%; in the series with MCF7 [1] it was 85%; with MDA231 it was 101%; in the series on PC3 [2] it was 89%; in the series with MDA468, 96%; in the series on HuH7, 80%. For the same compound, in the series with Caco-2 [3], the “percentage of cell survival” value was found to be 76%.

On to `Fc1ccc(Nc2ncc3ccc4ccccc4c3n2)cc1` [Compound 4j, N-(4-fluorophenyl)benzo[h]quinazolin-2-amine], for which the viability at 25 µM in the series with HCT116 came to 81%; with MCF7 [1] it was 81%; in the series with MDA231 it was 91%; in the series with PC3 [2] it was 78%; with MDA468, 95%; with HuH7, 92%. Also, in the series on Caco-2 [3], the “percentage of cell survival” value was found to be 77%.

As for `Fc1cc(Cl)cc(Nc2ncc3ccc4ccccc4c3n2)c1` [Compound 4p, N-(3-chloro-5-fluorophenyl)benzo[h]quinazolin-2-amine], the viability at 25 µM in the series on HCT116 was 17%; with MCF7 [1], 91%; in the series on MDA231, 68%; in the series with PC3 [2], 59%; with MDA468, 72%; in the series on HuH7 it was 80%. In addition, in the series on Caco-2 [3], the “percentage of cell survival” value was found to be 54%.

On to `Clc1ccc(Nc2ncc3ccc4ccccc4c3n2)cc1` [Compound 4m, N-(4-chlorophenyl)benzo[h]quinazolin-2-amine], for which the viability at 25 µM was determined as 68% in the series with HCT116; 88% in the series on MCF7 [1]; 83% with MDA231; 74% with PC3 [2]; 88% in the series on MDA468; 96% with HuH7. Moreover, the “percentage of cell survival” value in the series with Caco-2 [3] is given as 75%.
